Laboratory results taken from patent US9663496B2, “AMPK-activating heterocyclic compounds and methods for using the same” (Rigel Pharmaceuticals, Inc., priority 2010, dated 2017).

biological target: AMPK; experiment: AMPK activation, enzyme-linked immunosorbent assay; format: biochemical; conditions: EC50 for AMPK activation, ELISA
Protocol: Compounds were assayed for their ability to activate AMPK using an enzyme-linked immunosorbent assay. Reagents and procedures for measuring AMPK activation are well known and kits for AMPK activation assays are commercially available.

Compound | EC50 [nM]
O=C(N[C@@H]1CCNC[C@@H]1F)c1ccc(C(=O)N2CCN(Cc3ccc(F)cc3)CC2)cn1 (relative stereo) [Compound 102, 5-(4-(4-fluorobenzyl)piperazine-1-carbonyl)-N-(cis-3-fluoropiperidin-4-yl)picolinamide] | 5000 to 10000
CS(=O)(=O)c1ccc(C(=O)C2CCN(C(=O)c3ccc(C(=O)N[C@@H]4CCN(Cc5ccc(C#N)cc5)C[C@H]4F)nc3)CC2)cc1 (relative stereo) [Compound 252, N-((trans)-1-(4-cyanobenzyl)-3-fluoropiperidin-4-yl)-5-(4-(4-(methylsulfonyl)benzoyl)piperidine-1-carbonyl)picolinamide] | 500 to 1000
CS(=O)(=O)c1ccc(C(=O)C2CCN(C(=O)c3ccc(C(=O)N[C@@H]4CCN(Cc5ccc(OC(F)(F)F)cc5)C[C@H]4F)nc3)CC2)cc1 (relative stereo) [Compound 253, N-((trans)-3-fluoro-1-(4-(trifluoromethoxy)benzyl)piperidin-4-yl)-5-(4-(4-(methylsulfonyl)benzoyl)piperidine-1-carbonyl)picolinamide] | 500 to 1000
COc1ccc(C(=O)C2CCN(C(=O)c3ccc(C(=O)N[C@@H]4CCN(Cc5ccc(OC(C)C)cc5)C[C@H]4F)cn3)CC2)cc1 (relative stereo) [Compound 353, N-((trans)-3-fluoro-1-(4-isopropoxybenzyl)piperidin-4-yl)-6-(4-(4-methoxybenzoyl)piperidine-1-carbonyl)nicotinamide] | < 500
COc1ccc(C(=O)C2CCN(C(=O)c3ccc(C(=O)N[C@@H]4CCN(Cc5ccc(C#N)c(F)c5)C[C@H]4F)cn3)CC2)cc1 (relative stereo) [Compound 354, N-((trans)-1-(4-cyano-3-fluorobenzyl)-3-fluoropiperidin-4-yl)-6-(4-(4-methoxybenzoyl)piperidine-1-carbonyl)nicotinamide] | < 500
COc1ccc(C(=O)C2CCN(C(=O)c3ccc(C(=O)N[C@H]4CCN(Cc5ccc(C#N)cc5)C[C@H]4F)cn3)CC2)cc1 (relative stereo) [Compound 454, N-((cis)-1-(4-cyanobenzyl)-3-fluoropiperidin-4-yl)-6-(4-(4-methoxybenzoyl)piperidine-1-carbonyl)nicotinamide] | < 500
N#Cc1ccc(CN2CCC(NC(=O)c3ccc(C(=O)N4CCC(Oc5ccc(S(=O)(=O)C(F)(F)F)cc5)CC4)nc3)C(F)C2)cc1 (stereo in doubt) [Compound 451, N-((3S,4R)-1-(4-cyanobenzyl)-3-fluoropiperidin-4-yl)-6-(4-(4-(trifluoromethylsulfonyl)phenoxy)piperidine-1-carbonyl)nicotinamide] | < 500
O=C(c1ccc(C(=O)N2CCN(Cc3ccc(F)cc3)CC2)nc1)N1CCN(Cc2ccc(F)cc2)CC1 [Compound 3, pyridine-2,5-diylbis((4-(4-fluorobenzyl)piperazin-1-yl)methanone)] | 500 to 1000
N#Cc1ccc(C(=O)N2CCC(NC(=O)c3ccc(C(=O)N4CCN(Cc5ccc(F)cc5)CC4)cn3)CC2)cc1 [Compound 4, N-(1-(4-cyanobenzoyl)piperidin-4-yl)-5-(4-(4-fluorobenzyl)piperazine-1-carbonyl)picolinamide] | 500 to 1000
N#Cc1ccc(CN2CCC(NC(=O)c3ccc(C(=O)Nc4cccc(Cc5ccccc5)c4)cn3)CC2)cc1 [Compound 5, N^2-(1-(4-cyanobenzyl)piperidin-4-yl)-N^5-(3-benzylphenyl)pyridine-2,5-dicarboxamide] | 500 to 1000
O=C(NC1CCN(C(=O)C2CCCCC2)CC1)c1ccc(C(=O)N2CCN(Cc3ccc(F)cc3)CC2)cn1 [Compound 7, N-(1-(cyclohexanecarbonyl)piperidin-4-yl)-5-(4-(4-fluorobenzyl)piperazine-1-carbonyl)picolinamide] | < 500
O=C(NC1CCN(C(=O)c2ccccc2)CC1)c1ccc(C(=O)N2CCN(Cc3ccc(F)cc3)CC2)cn1 [Compound 8, N-(1-(benzoyl)piperidin-4-yl)-5-(4-(4-fluorobenzyl)piperazine-1-carbonyl)picolinamide] | < 500
N#Cc1ccc(Cn2ccc(NC(=O)c3ccc(C(=O)N4CCN(Cc5ccc(F)cc5)CC4)cn3)n2)cc1 [Compound 9, N-(1-(4-cyanobenzyl)-1H-pyrazol-3-yl)-5-(4-(4-fluorobenzyl)piperazine-1-carbonyl)picolinamide] | < 500
O=C(Nc1ccc(-c2ccccc2)cc1)c1ccc(C(=O)N2CCN(Cc3ccc(F)cc3)CC2)cn1 [Compound 11] | < 500
O=C(Nc1cccc(-c2ccccc2)c1)c1ccc(C(=O)N2CCN(Cc3ccc(F)cc3)CC2)cn1 [Compound 12] | 5000 to 10000

Continued, values first:

EC50 [nM] | Compound
< 500 | O=C(N[C@@H]1CCN(Cc2ccncc2)C[C@@H]1F)c1ccc(C(=O)N2CCN(Cc3ccc(F)cc3)CC2)cn1 (relative stereo) [Compound 104, N-(cis-3-fluoro-1-(pyridin-4-ylmethyl)piperidin-4-yl)-5-(4-(4-fluorobenzyl)piperazine-1-carbonyl)picolinamide]
< 500 | O=C(N[C@@H]1CCN(Cc2ccc(Cl)cc2)C[C@@H]1F)c1ccc(C(=O)N2CCN(Cc3ccc(F)cc3)CC2)cn1 (relative stereo) [Compound 127, N-(cis-1-(4-chlorobenzyl)-3-fluoropiperidin-4-yl)-5-(4-(4-fluorobenzyl)piperazine-1-carbonyl)picolinamide]
< 500 | CS(=O)(=O)c1ccc(OC2CCN(C(=O)c3ccc(C(=O)N[C@@H]4CCN(Cc5ccc(C#N)cc5)C[C@H]4F)nc3)CC2)cc1 (relative stereo) [Compound 254, N-((trans)-1-(4-cyanobenzyl)-3-fluoropiperidin-4-yl)-5-(4-(4-(methylsulfonyl)phenoxy)piperidine-1-carbonyl)picolinamide]
< 500 | CS(=O)(=O)c1ccc(OC2CCN(C(=O)c3ccc(C(=O)N[C@@H]4CCN(Cc5ccc(OC(F)(F)F)cc5)C[C@H]4F)nc3)CC2)cc1 (relative stereo) [Compound 255, N-((trans)-3-fluoro-1-(4-(trifluoromethoxy)benzyl)piperidin-4-yl)-5-(4-(4-(methylsulfonyl)phenoxy)piperidine-1-carbonyl)picolinamide]
< 500 | N#Cc1ccc(CN2CCC(NC(=O)c3ccc(C(=O)N4CC[C@H](Oc5ccc(C#N)cc5)[C@@H](F)C4)cn3)CC2)cc1 (relative stereo) [Compound 279, N-(1-(4-cyanobenzyl)piperidin-4-yl)-5-((trans)-4-(4-cyanophenoxy)-3-fluoropiperidine-1-carbonyl)picolinamide]
< 500 | COc1ccc(C(=O)C2CCN(C(=O)c3ccc(C(=O)N[C@@H]4CCN(Cc5ccc(C#N)cc5)C[C@H]4F)cn3)CC2)cc1 (relative stereo) [Compound 349, N-((trans)-1-(4-cyanobenzyl)-3-fluoropiperidin-4-yl)-6-(4-(4-methoxybenzoyl)piperidine-1-carbonyl)nicotinamide]
< 500 | COc1ccc(C(=O)C2CCN(C(=O)c3ccc(C(=O)N[C@@H]4CCN(Cc5ccc(OC(F)(F)F)cc5)C[C@H]4F)cn3)CC2)cc1 (relative stereo) [Compound 350, N-((trans)-3-fluoro-1-(4-(trifluoromethoxy)benzyl)piperidin-4-yl)-6-(4-(4-methoxybenzoyl)piperidine-1-carbonyl)nicotinamide]
